In patent publication US4916145A, “Substituted n-[(pyridyl)alkyl]aryl-carboxamide” (Hoffmann-La Roche Inc., priority 1987, dated 1990):

What was measured:
[1] = system: PAF-Induced Platelet Count Decrease; test: PAF-Induced Platelet Count Decrease; type: in vivo, guinea pig; settings: for inhibition in vivo at 3 mg/kg: Cavia porcellus, Platelet, 0.25 h, iv, 15 minutes pretreatment time, read-out: PAF-Induced Platelet Count Decrease % Inhibition, i.v.
Description: Male Hartley guinea pigs weighing between 500 and 900 grams were fed standard guinea pig chow and tap water ad libitum. PAF was solubilized in ethanol and stored as a 2 mM stock solution at -70° C. The stock solution of PAF was diluted to […] in Tris buffer pH 7.4 and 0.1% BSA for all experiments.
Guinea pigs were anesthetized with urethane (1.6 g/kg, i.p.). A catheter (PE50) was introduced into the right carotid artery for withdrawing blood. A second catheter PE10) was introduced into the jugular vein for injecting drugs and for administering the PAF challenge (75 ng/kg, i.v.). A control blood sample was obtained and platelets were counted in a whole blood platelet analyzer. PAF was then given and blood samples were taken 15, 30, and 60 seconds after the challenge for platelet counts. Fifteen minutes later, selected concentrations of the test compound were solubilized in DMSO and injected intravenously into a group of 4-6 animals. Only one concentration of the test drug was used in each animal group. Fifteen minutes after drug injection, blood samples were taken before and 15, 30, and 60 sec after the PAF challenge, and analyzed for platelet number.
Animals were anesthetized with sodium pentobarbital (35 mg/kg. i.p.) and the carotid artery and jugular vein were cannulated as described above. The cannulae were exteriorized at the base of the neck and the animals were allowed to recover. Conscious, unrestrained guinea pigs which were allowed to recover from surgery for at least 18 hours were used in the experiments. The animals were challenged two times with PAF (120 ng/kg, i.v.); the first to establish a consistent response to PAF and the second to serve as a control from the PAF challenge. Blood samples were taken before and 15, 30, and 45 seconds after PAF challenge and platelets were counted. Thirty minutes after the control PAF challenge, the animals were orally dosed with either gum acacia or the test compound. Animals were then challenged with PAF at 1, 3, 5, and 24 hours after the administration of the drug.
The % change, i.e., the difference in platelet number before and after PAF challenge was calculated by: [formula] The % activity of drug was then determined by
Statistical significance (p≤0.05) of the difference between the mean PAF control and mean drug treated activity was determined with the pared Students's t-test.

[2] = target: T1, PAF binding, dog platelets (Canis lupus familiaris, UniProt A0A8I3NSH0); test: PAF Binding Assay (3H-PAF binding to washed dog platelets); settings: 10 minutes at room temperature
T1 sequence (A0A8I3NSH0 1-343): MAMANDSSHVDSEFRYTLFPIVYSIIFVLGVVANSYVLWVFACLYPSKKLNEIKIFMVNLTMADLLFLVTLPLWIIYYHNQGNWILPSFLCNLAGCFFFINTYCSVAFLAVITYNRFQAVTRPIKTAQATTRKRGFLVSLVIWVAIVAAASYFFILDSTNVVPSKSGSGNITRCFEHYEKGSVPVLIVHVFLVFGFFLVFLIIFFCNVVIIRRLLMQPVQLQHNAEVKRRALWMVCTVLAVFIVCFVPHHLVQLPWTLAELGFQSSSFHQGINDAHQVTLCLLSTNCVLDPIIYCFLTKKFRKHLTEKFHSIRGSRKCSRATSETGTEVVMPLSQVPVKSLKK
Description: The binding assay was performed in 400 μl polyethylene microcentrifuge tubes (Beckman) containing 50 μl of an oil mixture of 2 parts Siliconol AR200 (Serva): 1 part Silicone Fluid (Arthur H. Thomas). Buffer, standards, or analogs 150 μl total volume) were added to the tubes. Radiolabelled ^3 H-PAF (50 μl) was then added to the tubes. The reaction was started by the addition of 50 μl of dog platelets (2×10^7 platelets). The tubes were capped, inverted several times to mix, and incubated for 10 minutes at room temperature. The platelets were separated from the incubation mixture by centrifuging 1 minute in a Beckman Microfuge B centrifuge. The tip of the microfuge tube was cut off, and the platelets were washed out of the tip with 200 μl of 50% methanol (Burdick and Jackson). Aquasol (NEN, 10 ml) was added and the radioactivity in the samples was determined using an LS 8100 Beckman liquid scintillation counter linked to a Techtran tape recorder. Data was processed through an in-house computer system. Alternatively, radioactivity was determined using a Searle Mark III liquid scintillation counter linked to a Iso-Data microprocessor.
Blood was collected from anesthesized or unanesthesized dogs into 5ml plastic centrifuge tubes containing 3.8% sodium citrate as the anticoagulant (1 volume of citrate/9 volumes of blood). The red cells were removed by centrifugation for 15 minutes at 600 rpm (100-125 g) at room temperature. An aliquot of the supernatant platelet rich Plasma (PRP) was saved for cell counting and the remainder was acidified to pH 6.5 with 0.15M citric acid. The platelet pellet was obtained after a 10 minute centrifugation at 2000 rpm (1000 g) at room temperature. Washed platelets were prepared by resuspending the platelet pellet once with PBS containing 1 mM EDTA, centrifuging as noted, and then resuspending the platelets in 0.1% BSA-PBS. An aliquot of the washed platelets was counted, platelets used for binding assays were diluted to 2×10^7 platelets/assay tube (4×10^8 platelets/ml).

[3] = system: PAF-Induced Bronchoconstriction; test: PAF-Induced Bronchoconstriction Assay; type: in vivo, guinea pig; settings: for inhibition in vivo at 1 mg/kg / inhibition in vivo at 50 mg/kg: Cavia porcellus; for inhibition in vivo at 1 mg/kg: 1 min; for inhibition in vivo at 50 mg/kg: po, 2 hours pretreatment
Description: The in vivo ability of compounds to inhibit PAF-induced bronchoconstriction in guinea pigs was assessed by the intravenous and oral routes of administration. The intravenous technique utilized male guinea pigs (Hartley strain, Charles River) weighing 400-600 g. Animals were anesthetized with urethane (2 g/kg) intraperitoneally and a polyethylene cannula was inserted into the jugular vein for intravenous drug administration. Tracheal pressure ([…]) was recorded from a Statham pressure transducer (P 32 AA). Propranolol was administered 5 minutes prior to challenge with PAF. Two minutes later spontaneous breathing was arrested with succinylcholine chloride (1.2 mg/kg) administered intravenously, and the animals were ventilated with a Harvard (Model 680) small animal respirator set at 40 breaths/min and 4.0 cc stroke volume. Control vehicle or test drug was administered through the cannula into the jugular vein 1 minute before the animals were challenged with a maximum constrictory dose of PAF (1.0 μg/kg) given intravenously. The change in tracheal pressure was averaged for four control and four drug-treated animals and percent inhibition was calculated.
For determination of oral activity, animals were dosed with test compound or vehicle two hours prior to challenge with PAF (1.0 μg/kg, i.v.).
The change in tracheal pressure is determined by subtracting the steady state baseline achieved after administration of succinylcholine from the peak bronchoconstriction seen after challenge with PAF. The mean change in tracheal pressure is calculated for each test compound and compared to the mean change in tracheal pressure for the control animals to give the percent inhibition of bronchoconstriction. The standard error is calculated as the standard error of the mean.

[4] = 1 mg/kg iv, 1 minute pretreatment

Row | Compound | IC50 [2] | inhibition in vivo at 3 mg/kg [1] | PAF-Induced Platelet Count Decrease % Inhibition, po ([1]; po, no dose footnote printed) | inhibition in vivo at 1 mg/kg [3, 4] | inhibition in vivo at 50 mg/kg [3] | PAF-Induced Bronchoconstriction % Inhibition, 1 mg/kg iv [3, 4]
1 | COc1ccc(-c2ccc(C(=O)NC(C)CCCc3cccnc3)cc2)cc1OC (racemic) [(rac.)-3',4'-Dimethoxy-N-[1-methyl-4-(3-pyridinyl)butyl][1,1'-biphenyl]-4-carboxamide] | – | 26% | 75 ± 21% | – | – | –
2 | CCCCc1cc(C(=O)NCCCCc2cccnc2)ccc1-c1ccc(OC)c(OC)c1 [2-Butyl-3',4'-dimethoxy-N-[4-(3-pyridinyl)butyl][1,1'-biphenyl)-4-carboxamide] | – | – | – | 6 ± 4% | – | –
3 | CCCCc1ccc(C(=O)NCCCCc2cccnc2)cc1CCCC [3,4-Dibutyl-N-[4-(3-pyridinyl)butyl]benzamide] | > 1 µM | – | – | – | – | –
4 | O=C(NCCCCc1cccnc1)c1ccc(-c2ccccc2)c(-c2ccccc2)c1 [3,4-Diphenyl-N-[4-(3-pyridinyl)butyl]-benzamide] | – | 49% | – | 21 ± 4% | 33 ± 12% | –
5 | COc1cccc(-c2ccc(C(=O)NCCCCc3cccnc3)cc2-c2cccc(OC)c2)c1 [3,4-bis-(3-Methoxyphenyl)-N-[4-(3-pyridinyl)butyl]-benzamide] | – | 4% | – | 12 ± 6% | – | –
6 | Cc1ccc(-c2ccc(-c3nnn(CCCc4cccnc4)n3)cc2)cc1C [3-[3-[5-(3',4'-Dimethyl-[1,1'-biphenyl]-4-yl)-2H-tetrazol-2-yl]propyl]pyridine] | > 1 µM | – | – | 11 ± 3% | – | –
7 | Cc1ccc(-c2ccc(-c3nnn(CCCCc4cccnc4)n3)cc2)cc1C [3-[4-[5-(3',4'-Dimethyl-[1,1'-biphenyl]-4-yl)-2H-tetrazol-2-yl]butyl]pyridine] | > 1 µM | – | – | 17 ± 15% | – | –
8 | Cc1ccc(-c2ccc(-c3nnn(CCCCCCc4cccnc4)n3)cc2)cc1C [3-[6-[5-(3',4'-Dimethyl-[1,1'-biphenyl]-4-yl)-2H-tetrazol-2-yl]hexyl]pyridine] | > 1 µM | – | – | 40 ± 4% | – | –
9 | O=C(NCCCCc1cccnc1)c1ccc(C2CCCCC2)cc1 [4-Cyclohexyl-N-[4-(3-pyridinyl)butyl]-benzamide] | 0.25 µM | – | – | 17 ± 7% | – | –
10 | COc1ccc(-c2ccc(C(=O)N[C@H](C)CCCc3cccnc3)cc2Br)cc1OC [(R)-2-Bromo-3',4'-dimethoxy-N-[1-methyl-4-(3-pyridinyl)-butyl][1,1'-biphenyl]-4-carboxamide] | 0.18 µM | – | – | 98 ± 0.7% | 97 ± 1% | –
11 | CCCCc1cc(C(=O)N[C@H](C)CCCc2cccnc2)ccc1-c1ccc(OC)c(OC)c1 [(R)-2-Butyl-3',4'-dimethoxy-N-[1-Methyl-4-(3-pyridinyl)butyl][1,1'-biphenyl]-4-carboxamide] | – | – | – | 55 ± 12% | – | –
12 | CCc1cc(C(=O)N[C@H](C)CCCc2cccnc2)ccc1-c1ccc(OC)c(OC)c1 [(R)-2-Ethyl-3',4'-dimethoxy-N-[1-methyl-4-(3-pyridinyl)butyl][1,1'-biphenyl]-4-carboxamide] | 0.004 µM | – | – | 93 ± 1% | 89 ± 5% | –
13 | COc1ccc(-c2ccc(C(=O)N[C@H](C)CCCc3cccnc3)cc2[N+](=O)[O-])cc1OC [(R)-2-Nitro-3',4'-dimethoxy-N-[1-methyl-4-(3-pyridinyl)-butyl][1,1'-biphenyl]-4-carboxamide] | 0.2 µM | – | – | 97 ± 4% | 89 ± 8% | –
14 | CCCc1cc(C(=O)N[C@H](C)CCCc2cccnc2)ccc1-c1ccccc1 [(R)-2-Propyl-N-[1-methyl-4-(3-pyridinyl)-butyl]-[1,1'-biphenyl]-4-carboxamide] | 0.05 µM | – | – | 12 ± 6% | – | –
15 | C=CCc1cc(C(=O)N[C@H](C)CCCc2cccnc2)ccc1-c1ccc(OC)c(OC)c1 [(R)-3',4'-Dimethoxy-N-[1-methyl-4-(3-pyridinyl)butyl]-2-(2-propenyl)-[1,1'-biphenyl]-4-carboxamide] | 0.08 µM | – | – | 80 ± 11% | 93 ± 3% | –
16 | CCCc1cc(C(=O)N[C@H](C)CCCc2cccnc2)ccc1-c1ccc(OC)c(OC)c1 [(R)-3',4'-Dimethoxy-N-[1-methyl-4-(3-pyridinyl)butyl]-2-propyl-[1,1'-biphenyl]-4-carboxamide] | 0.05 µM | – | – | 28 ± 12% | – | –
17 | COc1ccc(-c2ccc(C(=O)N[C@H](C)CCCc3cccnc3)cc2)cc1OC [(R)-3',4'-Dimethoxy-N-[1-methyl-4-(3-pyridinyl)butyl][1,1'-biphenyl]-4-carboxamide] | – | – | – | 65 ± 11% | 88 ± 3% | –

Now from value to molecule, other results behind:

Row | IC50 [2] | Compound | inhibition in vivo at 3 mg/kg [1] | PAF-Induced Platelet Count Decrease % Inhibition, po ([1]; po, no dose footnote printed) | inhibition in vivo at 1 mg/kg [3, 4] | inhibition in vivo at 50 mg/kg [3] | PAF-Induced Bronchoconstriction % Inhibition, 1 mg/kg iv [3, 4]
18 | 0.3 µM | COc1ccc(-c2ccc(C(=O)NCCCCc3cccnc3)cc2OC)cc1OC [2,3',4'-trimethoxy-N-[4-(3-pyridinyl)butyl]-[1,1'-biphenyl]-4-carboxamide] | – | – | 58 ± 10% | – | –
19 | 0.2 µM | COc1ccc(-c2ccc(C(=O)NCCCCc3cccnc3)cc2Br)cc1OC [2-Bromo-3',4'-dimethoxy-N-[4-(3-pyridinyl)butyl]-[1,1'biphenyl]-4-carboxamide] | – | – | 81 ± 10% | 74 ± 12% | –
20 | 0.5 µM | CCCCc1cc(C(=O)NCCCCc2cccnc2)ccc1-c1ccccc1 [2-Butyl-N-[4-(3-pyridinyl)butyl][1,1'-biphenyl]-4-carboxamide] | – | – | 27 ± 10% | – | –
21 | 0.2 µM | COc1ccc(-c2ccc(C(=O)NCCCCc3cccnc3)cc2[N+](=O)[O-])cc1OC [2-Nitro-3',4'-dimethoxy-N-[4-(3-pyridinyl)-butyl][1,1'-biphenyl]-4-carboxamide] | – | – | 81 ± 15% | 62 ± 15% | –
22 | 0.06 µM | CCCc1cc(C(=O)NCCCCc2cccnc2)ccc1-c1ccccc1 [2-Propyl-N-[4-(3-pyridinyl)butyl][1,1'-biphenyl]-4-carboxamide] | – | – | 38 ± 8% | – | –
23 | 0.6 µM | Cc1ccc(-c2ccc(C(=S)NCCCCc3cccnc3)cc2)cc1C [3',4'-Dimethyl-N-[4-(3-pyridinyl)butyl][1,1-biphenyl]-4-carbothioamide] | – | – | – | – | potentiation
24 | 0.4 µM | O=C(NCCCCc1cccnc1)c1ccc(-c2cccc(F)c2)c(-c2cccc(F)c2)c1 [3,4-bis-(3-Fluorophenyl)-N-[4-(3-pyridinyl)butyl]-benzamide] | – | – | 12 ± 2% | – | –
25 | 0.125 µM | COc1ccc(-c2ccc(C(=O)NCCCCc3cccnc3)cc2-c2ccc(OC)cc2)cc1 [3,4-bis-(4,Methoxyphenyl)-N-[4-(3-pyridinyl)butyl]-benzamide] | – | – | 26 ± 6% | – | –
26 | 0.25 µM | C[C@H](CCCc1cccnc1)NC(=O)c1ccc(-c2ccccc2)c(-c2ccccc2)c1 [(R)-3,4-diphenyl-N-[1-methyl-4-(3-pyridinyl)-butyl]benzamide] | – | – | 31 ± 4% | – | –
27 | 0.62 µM | O=C(NCCCCc1cccnc1)c1cccc(-c2ccccc2)c1 [N-[4-(3-pyridinyl)butyl][1,1'-biphenyl]-3-carboxamide] | – | – | 14 ± 10% | – | –
